Data as given in paper PMC10895678 (Journal of Medicinal Chemistry, 2024).
“And” between values parts separate entries of the source, which are not always exact repeats. Equal values may be shown once. Read-outs that look alike come from different tables or passages of the source.

Tests used:
BCG = type: cell-based, Mycobacterium bovis BCG
[1] = Mouse PK, multiple oral dosing of single compounds; type: in vivo, KM mice; conditions: for half-life / AUC(0-inf) / Cmax / Tmax: 30 mg/kg
Excerpt: Methods for combined single dosing (BGAz001–005) and dosing of single compounds multiple times (BGAz004 and BGAz005) are described in detail in the Supporting Information (PK Data).
Report on PK results of BGAz-004 by multiple oral dosing
7 Materials and instrument combined dosing
An MS2 Turnover type oscillator was purchased from IKA Work’s Guangzhou (China), and a 5415R ChromatographicanalyseswereconductedusinganAgilent1290InfinityIIhighperformanceliquidchromatography andAgilentTechnologies6470TripleQuadLC/MS.Propranolol(≥90%inpurity,internalstandard,IS)waspurchased fromtheSigmaChemicalCo.(China).Formicacid(HPLCgrade)andmethanol(HPLCgrade)werepurchasedfrom DIKMACo.(China).Allchemicalsandsolventswereanalyticalgrade.WaterwaspurifiedusingaMillipore(AK,USA) laboratoryultra-purewatersystem(0.2μmfilter).
KMmice,weighing25–35g(BeijingVitalRiverLaboratoryAnimalTechnologyCo.,Ltd.,China)wereutilisedforthe studies.The protocols were approved by the Animal Care and Use Committee, GIBH. Animals were maintained on standard animal chow and waterad libitum, in a climate-controlled room (23±1 °C 30–70% relative humidity, a minimumof tenexchangesof roomairperhouranda12hlight/darkcycle)foroneweekpriortoexperiments.
9 Pharmacokinetic studies
Compound BGAz-004 were dissolved in the solution containing DMSO (2%), ethanol (4%), Cremophor EL (4%) and ddH2O (90%).The mice were given solution with 30 mg/kg bygastric gavagefor 3 days.Whole blood samples (100μL)wereobtainedfromtheorbitalvenousplexusatthefollowingtimepointsafterthethirddaydosing:5,15,30 min and 1, 3, 5, 8, 24 hour. Whole blood samples were collected in heparinised tubes. The plasma fraction was immediately separated by centrifugation. The mice were humanely euthanasia by carbon dioxide 24 hours after […]
10 Plasma sample analysis
10.1 Standard curve sample preparation
ThecompoundsweredissolvedinDMSO(2mg/mL)anddilutedwithtoseriesconcentration(methanol:H 2O,1:1,10 μL) and blank plasma (50 μL) were added to 1.5 mL tubes and vortexed for 3 min, then acetonitrile-containing internalstandard(150μL)wasaddedandvortexedforafurther5min,andsubsequentlyspuninacentrifugeat13000 […]
10.2 Plasma and preparation
Plasmasampleswerepreparedusingaproteinprecipitationmethod.Solution(10μL,methanolH 2O,1:1)andplasma samples(50μL)wereaddedto1.5mLtubesandvortexfor3min,thenacetonitrile-containinginternalstandard(150 μL)wasaddedandvortexfor5min,andsubsequentlyspuninacentrifugeat13000× gfor40minat4°C.
Aftercentrifugation,supernatant(100μL)wastransferto96wellplatesandanalysedbyLC-MS/MSusinganAgilent 1290InfinityIIHPLCandanAgilentTechnologies6470TripleQuadLC/MS.
Report on PK results of BGAz-005 by multiple oral dosing
13 Materials and instrument combined dosing […]
fromtheSigmaChemicalCo.(China).Formicacid(HPLCgrade)andmethanol(HPLCgrade)werepurchased from […]
15 Pharmacokinetic studies
Compound BGAz-005 were dissolved in the solution containing DMSO (2%), ethanol (4%), Cremophor EL (4%) […]
16 Plasma sample analysis
16.1 Standard curve sample preparation
16.2 Plasma and preparation

M. tuberculosis H37Rv = assay: Mycobacterial time kill experiments (total viable counts); type: cell-based, Mycobacterium tuberculosis; conditions: 96 μM, after 6 days of exposure
M. bovis BCG = type: cell-based, Mycobacterium bovis BCG
BCG pTIC6-fbpA = type: cell-based, Mycobacterium bovis BCG
[2] = KM, mouse, plasma, multiple PO 30 mg/kg, times 3, mean of animals
[3] = multiple PO 30 mg/kg, times 3, mean of animals

Which results are given for `CNCC1CC(c2ccc(OC(F)(F)F)cc2)N1Cc1ccccc1OC(F)(F)F` (centres unmarked) [BGAz-005]?
TMM and TDM in cell envelope lipids (BCG; 0.5 × MIC): significant reduction; TMM and TDM in cell envelope lipids (BCG; concentrations beyond the MIC): complete loss; half-life ([1]; KM, mouse, plasma, oral, mice, read-out: blood plasma half-life): > 72 h; AUC(0-inf) ([1]; KM, mouse, plasma, po, multiple PO 30 mg/kg, times 3, mean of animals, read-out: AUC(0-∞)): 82200 ng·h/mL; Cmax ([1]; KM, mouse, plasma, po, multiple PO 30 mg/kg, times 3, mean of animals, read-out: Cmax): 1710 ng/mL; Tmax ([1]; KM, mouse, plasma, po, multiple PO 30 mg/kg, times 3, mean of animals, read-out: Tmax): 0.875 h; half-life ([1]; KM, mouse, plasma, po, multiple PO 30 mg/kg, times 3, mean of animals, read-out: t1/2z (converted)): 80.4 h; AUC(0-inf) ([1]; KM, mouse, plasma, po, multiple PO, times 3, 30 mg/kg, summary table, read-out: AUC(0-∞)): 82200 ng·h/mL; Cmax ([1]; KM, mouse, plasma, po, multiple PO, times 3, 30 mg/kg, summary table, read-out: Cmax): 1710 ng/mL; half-life ([1]; KM, mouse, plasma, po, multiple PO, times 3, 30 mg/kg, summary table, read-out: T1/2 (converted)): 80.4 h; Tmax ([1]; KM, mouse, plasma, po, multiple PO, times 3, 30 mg/kg, summary table, read-out: Tmax): 0.875 h; AUC(0-inf) ([1]; KM, mouse, plasma, po, multiple daily dosing 3 × 30 mg/kg PO, read-out: AUC0-inf): 82200 ng·h/mL; Cmax ([1]; KM, mouse, plasma, po, multiple daily dosing 3 × 30 mg/kg PO, read-out: Cmax (Mouse, P.O.)): 1710 ng/mL; half-life ([1]; KM, mouse, plasma, po, multiple daily dosing 3 × 30 mg/kg PO, read-out: T1/2 (Mouse, P.O.) (converted)): 80.4 h; Tmax ([1]; KM, mouse, plasma, po, multiple daily dosing 3 × 30 mg/kg PO, read-out: Tmax (Mouse, P.O.)): 0.87 h; concentration at 0.083 h ([1]; KM, mouse, plasma, multiple PO 30 mg/kg, times 3, 0.083 h): 1.97 µM and 858 ng/mL; concentration at 0.25 h ([1]; KM, mouse, plasma, multiple PO 30 mg/kg, times 3, 0.25 h): 2.69 µM and 1170 ng/mL; concentration at 0.5 h ([1]; KM, mouse, plasma, multiple PO 30 mg/kg, times 3, 0.5 h): 3.53 µM and 1540 ng/mL; concentration at 1 h ([1]; KM, mouse, plasma, multiple PO 30 mg/kg, times 3, 1 h): 3.75 µM and 1630 ng/mL; concentration at 3 h ([1]; KM, mouse, plasma, multiple PO 30 mg/kg, times 3, 3 h): 1.96 µM and 855 ng/mL; concentration at 5 h ([1]; KM, mouse, plasma, multiple PO 30 mg/kg, times 3, 5 h): 714 ng/mL and 1.64 µM; concentration at 8 h ([1]; KM, mouse, plasma, multiple PO 30 mg/kg, times 3, 8 h): 608 ng/mL and 1.4 µM; concentration at 24 h ([1]; KM, mouse, plasma, multiple PO 30 mg/kg, times 3, 24 h): 570 ng/mL and 1.31 µM; AUC [1, 2]: 16800 ng·h/mL; AUC(0-t) [1, 2]: 16800 ng·h/mL; CL/F ([1]; KM, mouse, plasma, multiple PO 30 mg/kg, times 3, mean of animals, read-out: CLz/F (converted)): 13.1 mL/min/kg; MRT last ([1]; KM, mouse, plasma, multiple PO 30 mg/kg, times 3, mean of animals, read-out: MRT(0-t)): 10.3 h; MRT inf ([1]; KM, mouse, plasma, multiple PO 30 mg/kg, times 3, mean of animals, read-out: MRT(0-∞)): 116 h; Vd/F ([1]; KM, mouse, plasma, multiple PO 30 mg/kg, times 3, mean of animals, read-out: Vz/F): 34.4 L/kg; k el ([1]; KM, mouse, plasma, multiple PO 30 mg/kg, times 3, mean of animals, read-out: λz (converted)): 1.42e-05 s⁻¹; AUMC(0-t) [1, 3]: 172065.476 h*h*μg/L; AUMC(0-∞) [1, 3]: 21124940.36 h*h*μg/L; C_last [1, 3]: 394.2 ng/mL; Cav [1, 3]: 699.901 ng/mL; DF [1, 3]: 2.398; R_AUC(t/∞) [1, 3]: 45.975%; VRT(0-t) [1, 3]: 76.208 h^2; VRT(0-∞) [1, 3]: 32368.115 h^2; reduction of total viable count (M. tuberculosis H37Rv): 3.28 ± 1.00 log10 CFU mL^–1; log2FoldChange, gene BCG_0001 (M. bovis BCG): -0.2829; log2FoldChange, gene BCG_0002 (M. bovis BCG): -0.6164; log2FoldChange, gene BCG_0003 (M. bovis BCG): -0.7815; log2FoldChange, gene BCG_0004 (M. bovis BCG): -0.2846; log2FoldChange, gene BCG_0005 (M. bovis BCG): 0.5809; induced genes (M. bovis BCG; 8 h exposure, 1 × MIC): 160; repressed genes (M. bovis BCG; 8 h exposure, 1 × MIC): 126; BCG pTIC6-fbpA MIC (BCG pTIC6-fbpA): 25 µM
